Publication PMC10046369, “Low-Affinity/High-Selectivity Dopamine Transport Inhibition Sufficient to Rescue Cognitive Functions in the Aging Rat” (Biomolecules, 2023)

How the values were obtained:
Assay in all cases: biochemical
Parameters in all cases: KINOMEscan competition binding panel, per cent of control
Conditions in all cases: read-out: %Ctrl @ 2800nM
SRMS = SRMS (Homo sapiens, UniProt Q9H3Y6)
Outline: (§1)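 Competition binding panel (KINOMEscan) across 450 human kinases and disease-relevant mutants, run to the contractor's standard protocol. Values are % control: (test signal − positive control signal)/(negative control signal − positive control signal) × 100, with lower values indicating stronger binding.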

TGFBR2 = TGFBR2 (Homo sapiens, UniProt P37173)
Outline: as §1

PAK1 = PAK1 (Homo sapiens, UniProt Q13153)
Outline: as §1

p38-gamma = molecular target: T1, p38-gamma (Homo sapiens, UniProt P53778)
T1 construct: gene MAPK12
Outline: as §1

PRKCQ = PRKCQ (Homo sapiens, UniProt Q04759)
Outline: as §1

BMPR1B = BMPR1B (Homo sapiens, UniProt O00238)
Outline: as §1

DAPK2 = DAPK2 (Homo sapiens, UniProt Q9UIK4)
Outline: as §1

RIPK4 = RIPK4 (Homo sapiens, UniProt P57078)
Outline: as §1

FLT3(D835Y) = FLT3(D835Y) (Homo sapiens, UniProt P36888, D835Y)
Outline: as §1

MAP4K3 = MAP4K3 (Homo sapiens, UniProt Q8IVH8)
Outline: as §1

LRRK2 = LRRK2 (Homo sapiens, UniProt Q5S007)
Outline: as §1

MYLK2 = MYLK2 (Homo sapiens, UniProt Q9H1R3)
Outline: as §1

MET(Y1235D) = MET(Y1235D) (Homo sapiens, UniProt P08581, Y1235D)
Outline: as §1

PRKCE = PRKCE (Homo sapiens, UniProt Q02156)
Outline: as §1

[1] = molecular target: T2, RSK4(Kin.Dom.2-C-terminal) (Homo sapiens, UniProt Q9UK32)
T2 construct: gene RPS6KA6; Kin.Dom.2-C-terminal
Outline: as §1

ERBB3 = ERBB3 (Homo sapiens, UniProt P21860)
Outline: as §1

[2] = molecular target: EGFR(L747-S752del, P753S) (Homo sapiens, UniProt P00533, DEL747-752/P753S)
Outline: as §1

MET(M1250T) = MET(M1250T) (Homo sapiens, UniProt P08581, M1250T)
Outline: as §1

ROS1 = ROS1 (Homo sapiens, UniProt P08922)
Outline: as §1

FRK = FRK (Homo sapiens, UniProt P42685)
Outline: as §1

EGFR(T790M) = EGFR(T790M) (Homo sapiens, UniProt P00533, T790M)
Outline: as §1

MEK3 = molecular target: T3, MEK3 (Homo sapiens, UniProt P46734)
T3 construct: gene MAP2K3
Outline: as §1

CDC2L1 = molecular target: T4, CDC2L1 (Homo sapiens, UniProt P21127)
T4 construct: gene CDK11B
Outline: as §1

CDK2 = CDK2 (Homo sapiens, UniProt P24941)
Outline: as §1

STK35 = STK35 (Homo sapiens, UniProt Q8TDR2)
Outline: as §1

S6K1 = molecular target: T5, S6K1 (Homo sapiens, UniProt P23443)
T5 construct: gene RPS6KB1
Outline: as §1

Sequence of FRK (P42685 whole entry): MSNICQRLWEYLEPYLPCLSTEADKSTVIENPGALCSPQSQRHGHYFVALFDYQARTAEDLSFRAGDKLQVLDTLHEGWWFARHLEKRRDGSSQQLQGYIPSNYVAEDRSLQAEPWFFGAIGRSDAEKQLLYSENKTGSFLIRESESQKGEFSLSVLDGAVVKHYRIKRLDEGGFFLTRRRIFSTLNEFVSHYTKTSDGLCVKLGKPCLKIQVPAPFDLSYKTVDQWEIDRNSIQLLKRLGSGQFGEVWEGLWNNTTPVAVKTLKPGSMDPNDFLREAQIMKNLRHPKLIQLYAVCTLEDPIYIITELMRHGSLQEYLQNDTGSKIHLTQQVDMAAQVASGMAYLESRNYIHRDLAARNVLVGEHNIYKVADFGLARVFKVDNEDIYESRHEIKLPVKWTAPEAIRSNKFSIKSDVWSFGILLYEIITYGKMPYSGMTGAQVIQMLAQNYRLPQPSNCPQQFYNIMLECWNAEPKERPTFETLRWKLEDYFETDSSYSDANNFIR
Sequence of EGFR(L747-S752del, P753S) (P00533 with tags, fused parts or gaps DEL747-752/P753S): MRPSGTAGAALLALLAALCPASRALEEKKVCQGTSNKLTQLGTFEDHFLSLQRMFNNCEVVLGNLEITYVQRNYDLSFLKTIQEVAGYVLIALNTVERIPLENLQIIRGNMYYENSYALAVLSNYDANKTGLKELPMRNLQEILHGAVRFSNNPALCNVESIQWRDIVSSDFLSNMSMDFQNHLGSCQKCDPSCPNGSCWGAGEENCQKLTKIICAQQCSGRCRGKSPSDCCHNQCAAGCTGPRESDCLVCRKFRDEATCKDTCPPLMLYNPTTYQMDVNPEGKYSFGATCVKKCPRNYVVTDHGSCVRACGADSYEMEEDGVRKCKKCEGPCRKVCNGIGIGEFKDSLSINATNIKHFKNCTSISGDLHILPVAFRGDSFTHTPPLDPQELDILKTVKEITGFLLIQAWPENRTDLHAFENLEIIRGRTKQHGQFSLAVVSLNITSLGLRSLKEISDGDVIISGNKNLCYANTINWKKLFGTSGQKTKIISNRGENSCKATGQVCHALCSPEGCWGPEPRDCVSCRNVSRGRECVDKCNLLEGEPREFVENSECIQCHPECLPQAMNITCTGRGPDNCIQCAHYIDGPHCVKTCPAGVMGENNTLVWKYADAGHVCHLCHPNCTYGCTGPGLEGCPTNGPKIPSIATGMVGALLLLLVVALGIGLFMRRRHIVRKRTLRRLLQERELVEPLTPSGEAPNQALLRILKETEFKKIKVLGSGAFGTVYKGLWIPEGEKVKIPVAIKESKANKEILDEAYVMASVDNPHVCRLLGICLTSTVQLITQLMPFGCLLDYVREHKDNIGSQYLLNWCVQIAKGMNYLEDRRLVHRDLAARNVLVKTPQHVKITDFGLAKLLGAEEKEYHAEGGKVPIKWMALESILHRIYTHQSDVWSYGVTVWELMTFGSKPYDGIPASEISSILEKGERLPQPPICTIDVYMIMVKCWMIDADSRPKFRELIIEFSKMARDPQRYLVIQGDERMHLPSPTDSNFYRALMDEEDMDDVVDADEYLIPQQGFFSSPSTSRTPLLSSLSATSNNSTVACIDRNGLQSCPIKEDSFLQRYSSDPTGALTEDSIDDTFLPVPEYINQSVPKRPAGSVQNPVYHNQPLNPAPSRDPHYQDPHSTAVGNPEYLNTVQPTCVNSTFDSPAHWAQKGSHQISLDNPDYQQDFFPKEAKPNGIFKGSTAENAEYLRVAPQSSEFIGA
Sequence of ERBB3 (P21860 whole entry): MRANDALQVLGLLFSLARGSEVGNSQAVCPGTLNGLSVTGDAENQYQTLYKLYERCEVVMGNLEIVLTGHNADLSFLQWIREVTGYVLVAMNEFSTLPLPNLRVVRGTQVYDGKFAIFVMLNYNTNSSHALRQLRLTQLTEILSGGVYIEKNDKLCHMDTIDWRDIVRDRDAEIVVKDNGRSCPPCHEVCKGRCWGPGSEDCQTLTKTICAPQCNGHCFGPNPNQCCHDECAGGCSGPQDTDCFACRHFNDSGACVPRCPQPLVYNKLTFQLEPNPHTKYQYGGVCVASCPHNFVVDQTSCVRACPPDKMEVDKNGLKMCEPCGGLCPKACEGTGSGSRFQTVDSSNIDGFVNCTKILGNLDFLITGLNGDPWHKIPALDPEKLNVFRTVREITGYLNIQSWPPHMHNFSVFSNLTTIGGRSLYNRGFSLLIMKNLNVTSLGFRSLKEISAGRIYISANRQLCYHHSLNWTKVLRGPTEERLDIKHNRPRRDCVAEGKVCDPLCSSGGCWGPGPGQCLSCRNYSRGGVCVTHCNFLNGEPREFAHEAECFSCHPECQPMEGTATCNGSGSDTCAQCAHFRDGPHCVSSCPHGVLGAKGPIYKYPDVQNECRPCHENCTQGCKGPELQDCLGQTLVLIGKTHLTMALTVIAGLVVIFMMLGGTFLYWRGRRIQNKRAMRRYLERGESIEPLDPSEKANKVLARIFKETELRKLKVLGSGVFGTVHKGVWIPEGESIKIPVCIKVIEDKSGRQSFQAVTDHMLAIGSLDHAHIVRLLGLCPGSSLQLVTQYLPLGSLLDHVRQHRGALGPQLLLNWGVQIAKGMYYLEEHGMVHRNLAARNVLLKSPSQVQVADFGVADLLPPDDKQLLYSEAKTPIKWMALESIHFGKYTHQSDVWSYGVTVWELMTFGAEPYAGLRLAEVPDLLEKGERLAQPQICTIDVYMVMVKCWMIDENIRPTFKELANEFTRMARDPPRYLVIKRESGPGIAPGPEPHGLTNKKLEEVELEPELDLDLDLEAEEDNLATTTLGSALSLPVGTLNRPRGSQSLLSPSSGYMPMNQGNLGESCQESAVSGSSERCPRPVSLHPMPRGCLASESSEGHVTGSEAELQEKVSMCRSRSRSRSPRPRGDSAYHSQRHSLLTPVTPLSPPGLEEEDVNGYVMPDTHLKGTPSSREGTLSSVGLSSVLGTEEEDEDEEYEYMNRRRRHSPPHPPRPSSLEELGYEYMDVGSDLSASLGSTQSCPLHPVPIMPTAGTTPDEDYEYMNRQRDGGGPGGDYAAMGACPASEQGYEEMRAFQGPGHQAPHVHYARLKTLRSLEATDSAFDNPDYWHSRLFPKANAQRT
Sequence of DAPK2 (Q9UIK4 whole entry): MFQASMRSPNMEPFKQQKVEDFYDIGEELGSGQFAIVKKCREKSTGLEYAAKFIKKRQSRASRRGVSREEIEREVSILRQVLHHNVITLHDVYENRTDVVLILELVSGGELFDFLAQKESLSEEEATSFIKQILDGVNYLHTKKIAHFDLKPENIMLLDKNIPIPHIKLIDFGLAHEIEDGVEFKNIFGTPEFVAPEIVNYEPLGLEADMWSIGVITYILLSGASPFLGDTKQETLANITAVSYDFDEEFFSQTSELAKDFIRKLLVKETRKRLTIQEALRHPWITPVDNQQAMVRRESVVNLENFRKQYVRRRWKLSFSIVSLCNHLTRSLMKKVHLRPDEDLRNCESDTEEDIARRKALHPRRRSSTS
Sequence of MET(M1250T) (P08581 whole entry M1250T): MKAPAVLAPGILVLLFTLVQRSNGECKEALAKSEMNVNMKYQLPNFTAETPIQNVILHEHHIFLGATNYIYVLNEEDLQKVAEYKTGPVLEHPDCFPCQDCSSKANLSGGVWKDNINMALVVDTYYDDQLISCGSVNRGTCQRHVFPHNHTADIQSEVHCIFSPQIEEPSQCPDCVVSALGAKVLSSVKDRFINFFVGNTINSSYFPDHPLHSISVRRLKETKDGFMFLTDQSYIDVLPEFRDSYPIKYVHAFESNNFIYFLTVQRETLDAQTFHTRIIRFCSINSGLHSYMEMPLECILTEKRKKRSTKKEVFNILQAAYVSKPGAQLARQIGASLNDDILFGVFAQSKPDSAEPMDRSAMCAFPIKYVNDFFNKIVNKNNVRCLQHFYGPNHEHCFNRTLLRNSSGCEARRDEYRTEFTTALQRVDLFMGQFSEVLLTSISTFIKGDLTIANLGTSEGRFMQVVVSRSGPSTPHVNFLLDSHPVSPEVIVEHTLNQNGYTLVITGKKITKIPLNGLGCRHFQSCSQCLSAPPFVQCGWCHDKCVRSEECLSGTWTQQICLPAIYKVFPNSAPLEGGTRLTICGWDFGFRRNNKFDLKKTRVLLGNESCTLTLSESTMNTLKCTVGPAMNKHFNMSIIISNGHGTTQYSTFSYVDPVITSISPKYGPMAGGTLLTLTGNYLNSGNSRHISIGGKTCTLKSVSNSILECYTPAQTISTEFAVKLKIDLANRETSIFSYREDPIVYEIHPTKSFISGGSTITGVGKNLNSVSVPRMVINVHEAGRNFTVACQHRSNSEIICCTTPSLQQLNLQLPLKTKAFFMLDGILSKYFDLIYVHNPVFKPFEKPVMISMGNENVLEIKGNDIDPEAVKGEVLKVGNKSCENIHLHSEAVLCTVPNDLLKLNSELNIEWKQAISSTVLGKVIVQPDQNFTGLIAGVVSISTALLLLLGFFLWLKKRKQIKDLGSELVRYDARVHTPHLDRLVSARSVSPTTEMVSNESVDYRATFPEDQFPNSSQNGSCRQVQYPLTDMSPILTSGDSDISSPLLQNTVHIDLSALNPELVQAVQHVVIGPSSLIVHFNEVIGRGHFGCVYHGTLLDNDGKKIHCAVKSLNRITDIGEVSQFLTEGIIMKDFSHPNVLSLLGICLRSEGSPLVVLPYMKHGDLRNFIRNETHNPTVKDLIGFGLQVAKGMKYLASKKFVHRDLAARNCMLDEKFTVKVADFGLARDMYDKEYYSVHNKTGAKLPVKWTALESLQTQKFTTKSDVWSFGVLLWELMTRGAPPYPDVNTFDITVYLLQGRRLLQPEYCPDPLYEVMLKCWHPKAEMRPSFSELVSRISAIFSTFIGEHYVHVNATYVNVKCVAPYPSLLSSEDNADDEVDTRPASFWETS

`[O-][S@@+](Cc1cncs1)C(c1ccccc1)c1ccccc1` [S-CE-123, (S)-5-((Benzhydrylsulfinyl)Methyl)Thiazole] showed a remaining binding at 2.8 µM (SRMS) of 99%, a remaining binding at 2.8 µM (TGFBR2) of 88% and a remaining binding at 2.8 µM (PAK1) of 92%. For the same molecule, the remaining binding at 2.8 µM (p38-gamma) was 100%, the remaining binding at 2.8 µM (PRKCQ) was 100% and the remaining binding at 2.8 µM (BMPR1B) was 100%. It also gave a remaining binding at 2.8 µM (DAPK2) of 96%, a remaining binding at 2.8 µM (RIPK4) of 97% and a remaining binding at 2.8 µM (FLT3(D835Y)) of 99%. For the same molecule, the remaining binding at 2.8 µM (MAP4K3) was 100%, the remaining binding at 2.8 µM (LRRK2) was 100% and the remaining binding at 2.8 µM (MYLK2) was 99%. It also gave a remaining binding at 2.8 µM (MET(Y1235D)) of 99%, a remaining binding at 2.8 µM (PRKCE) of 100% and a remaining binding at 2.8 µM [1] of 94%. It also gave a remaining binding at 2.8 µM (ERBB3) of 89%, a remaining binding at 2.8 µM [2] of 96% and a remaining binding at 2.8 µM (MET(M1250T)) of 99%. It also gave a remaining binding at 2.8 µM (ROS1) of 91%, a remaining binding at 2.8 µM (FRK) of 96% and a remaining binding at 2.8 µM (EGFR(T790M)) of 98%. The remaining binding at 2.8 µM (MEK3) was 86%, the remaining binding at 2.8 µM (CDC2L1) was 95% and the remaining binding at 2.8 µM (CDK2) was 94%. It also gave a remaining binding at 2.8 µM (STK35) of 98% and a remaining binding at 2.8 µM (S6K1) of 90%.
